“Also recorded” adds a separate entry of the source.
What was measured:
[1] = system: pulmonary fibrosis-induced mice; assay: Bleomycin-induced pulmonary fibrosis animal model; assay type: in vivo, Balb/c mice; conditions: bleomycin mice lung, vs BLM-treated group
Text: To evaluate the therapeutic efficacy of the compound according to the present invention against pulmonary fibrosis, an animal model of pulmonary fibrosis induced by bleomycin intratracheal administration was established.
For this purpose, 8-week-old male Balb/c mice were subjected to general anesthesia using an inhalation anesthetic (2-3% isoflurane in oxygen), followed by disinfection of the neck region, skin incision, and exposure of the trachea.
Bleomycin (Sigma-Aldrich, USA) was directly administered into the trachea at a concentration of 5 mg/kg in a solution of 100 μL.
Two days prior to Bleomycin administration, the compound of the present invention or the comparative drug was administered intraperitoneally at the specified concentration and dose, and the administration was continued once daily for a total of 14 days.
The experimental groups included Normal, Bleomycin alone (BLM), and BLM plus the compound of the present invention (BLM+GO88, 0.2 mg/kg).
Ten days later, the mice were euthanized humanely using carbon dioxide gas, the trachea was incised, and PBS was injected into the trachea to remove blood from the lungs.
The lung tissue washed with PBS was excised, fixed in 4% paraformaldehyde solution for 24 hours, and then paraffin blocks and tissue sections were prepared. The prepared sections were subjected to pathological analysis using H&E, Masson's trichrome, and Sirius red staining.
Additionally, immunohistochemical (IHC) staining was performed for α-SMA (α-smooth muscle actin), an indicator of lung fibroblast activation.

[2] = system: PDK1 phosphorylation in SU-DHL-8 cells; assay: PDK1 phosphorylation inhibition by flow cytometry (pPDK1-PE) in SU-DHL-8 cells; assay type: cell-based, human; conditions: SU-DHL-8, 24 hours, vs control group
Protocol: After stabilizing the cells, the compound of the present invention was added, and the cells were cultured for 24 hours.
After drug treatment, the cells were harvested, and the Fc receptor blocking process was performed. The cells were then fixed and permeabilized using the Intracellular Staining Kit (Cat. No. BD554715) from BD Biosciences. Subsequently, the intracellular pPDK1 was stained using the pPDK1-PE fluorescently labeled antibody (BD Biosciences).
Referring to the figure, the vertical axis represents the phosphorylation level of PDK1 (phospho-PDK1 expression level), and the horizontal axis denotes the concentration-dependent treatment conditions of each compound.

[3] = system: MRL/lpr mice with hair loss in the facial region; assay: Hair loss treatment and hair follicle Ki-67 IHC in MRL/lpr mice; assay type: in vivo; conditions: 41-week-old female MRL/lpr; GO15F (30 mg/kg), GO48 (1 mg/kg), GO88 (0.5 mg/kg) intraperitoneal once daily
Protocol: Additionally, in 41-week-old female MRL/Ipr mice, the compounds GO15F (30 mg/kg), GO48 (1 mg/kg), and GO88 (0.5 mg/kg) were administered intraperitoneally once daily.
To confirm the proliferative activity of hair follicle cells in the skin tissue of these mice, the mice were sacrificed 14 days after administration of the compounds of the present invention, and Ki-67 immunohistochemistry (IHC) was performed.
For this purpose, the excised skin tissue was fixed in formalin, embedded in paraffin blocks, and stained with a Ki-67-specific antibody on tissue sections prepared as slides.

psoriasis-induced mice = assay: In vivo psoriasis model (Aldara cream, Imiquimod); parameters: species or system BALB/c mice
Protocol: To verify the therapeutic effect of the compound according to the present invention on psoriasis, a psoriasis animal model was established as follows, and the compound according to the present invention was administered to evaluate the alleviation of skin lesions and changes in immune cell patterns.
For the establishment of the psoriasis animal model, BALB/c mice (7 weeks old, female, 20 g) were purchased from HanabioTech Co., Ltd. and acclimatized to the rearing environment for one week.
Subsequently, the hair on the mouse back was shaved using a hair removal device for the first time, and then completely shaved using a depilatory cream (Nicrin Cream (80% thioglycolic acid, Il Dong Pharmaceutical)) for the second time. The mice were then kept for 24 hours to confirm the absence of skin damage.
To verify the psoriasis prevention and therapeutic effects of the compounds according to the present invention, the following experimental groups were established:
[Normal control group (Normal, Not Treatment), psoriasis-induced control group (Psoriasis, Not Treatment), psoriasis-induced vehicle control group (Psoriasis, Vehicle), experimental group (GO85, GO86, GO88, GO89, PBK-2024-010, PBK-2024-026, PBK-2025-002, PBK-2025-004, PBK-2025-016, PBK-2025-017, PBK-2025-023)]. […]
Body weights of mice in each group were measured on days 1, 4, and 8 after the start of injection and psoriasis induction. […]
To evaluate the therapeutic effect in a psoriasis-induced mouse model, the PASI (Psoriasis Area and Severity Index) score was measured.
The PASI score is based on three criteria: erythema, scaling, and skin thickness, each scored from 0 (none) to 4 (severe). […]
Observations were conducted daily at the same time, and the same observer visually assessed each criterion and recorded the scores, with the results presented in FIG. 13. […]
All samples were measured in duplicate, and the absorbance was measured at 450 nm using a microplate reader.

Q: With `Nc1ncccc1C(=O)NCCCCCCCCCCCCN1CCNCC1` [Compound 14, 2-Amino-N-(12-(piperazin-1-yl)dodecyl)nicotinamide] as the compound, how does the “collagen deposition (Masson's trichrome and Sirius red staining)” value [1] read?
A: Its value is “significantly reduced”.

Q: What about the “expression of α-SMA (IHC)” value [1] of the same compound?
A: The value was “significantly suppressed”.

Q: What about the phospho-PDK1 expression level ([2]; listed as GO88) of the same compound?
A: The phospho-PDK1 expression level was “stronger PDK1 inhibition; also recorded: high inhibitory effects even at low concentrations”.

Q: What about the “hair growth on the facial region” value [3] of the same compound?
A: Its value is “hair growth was confirmed”.

Q: What about the “efficacy in improving dermatological symptoms” value (psoriasis-induced mice) of the same compound?
A: The value was “excellent efficacy in improving dermatological symptoms”.

Q: For `Nc1ncccc1C(=O)NCCCCCCCCCCCCF` [Compound 57, 2-Amino-N-(12-fluoro-dodecyl)-nicotinamide], which “collagen deposition (Masson's trichrome and Sirius red staining)” value [1] is on record?
A: Its value is “significantly reduced”.

Q: And the “expression of α-SMA (IHC)” value [1]?
A: The value was “significantly suppressed”.

Q: And the phospho-PDK1 expression level [2]?
A: Its phospho-PDK1 expression level is “inhibitory effect on PDK1 phosphorylation”.

Q: And the “hair growth on the facial region” value [3]?
A: Its value is “hair growth was confirmed”.

Q: Which results are given for “12-[4-(2,2-dimethylmorpholin-4-yl)]dodecyl-N-(6-aminopurine-2-yl) carboxamide [Compound 11]”?
A: phospho-PDK1 expression level ([2]; listed as GO86): stronger PDK1 inhibition; also recorded: high inhibitory effects even at low concentrations; efficacy in improving dermatological symptoms (psoriasis-induced mice): excellent efficacy in improving dermatological symptoms
